A short description of this experiment: Activity of DmC1GalT1 mutants (UDP-Glo). It counts as biochemical, Drosophila melanogaster. The conditions noted are these: 500 µM UDP-Gal, 500 µM APDT*RP. From the text: The DNA sequence encoding amino acid residues of the DmC1GalT1 (aa T43-Q388) was codon optimized and synthesized by GenScript (USA) for expression in HEK293 cells (GIBCO). The construct, containing at the 5′-end a recognition sequence for AgeI, and at the 3′-end a recognition sequence for KpnI, was cloned into a pHLSec plasmid that contained a sequence encoding a 6xHis tag at the 3′-end followed by a stop codon, rendering the vector pHLSec-DmC1GalT1-6His. The cloning of the construct into pHLSec was performed by GenScript. All mutants in DmC1GalT1 (R152A, Y213A, Y218A, D255A, W300A and Y325A) were generated following a standard site-directed mutagenesis protocol by GenScript using the vector pHLSec-DmC1GALT1-6His. pHLSec-DmC1GalT1-6His and all the plasmids encoding for the different mutants were transfected into HEK293 cell line as described below. For DNA amplification, all plasmids were transformed in E. coli DH5α cells and extracted with PureLink™ Expi Endotoxin-Free Giga Plasmid Purification Kit (Invitrogen) according to the manufacturer’s instructions. Cells were grown in suspension in a humidified 37 °C and 8% CO2 incubator with rotation at 125 rpm. Transfection was performed at a cell density of 2.5 × 10^6 cell/mL in fresh media F17 serum-free media (Gibco) with 2% Glutamax and 0.1% Kolliphor® P 188. For each 150 mL of culture, 450 μg of the plasmid (1 μg/μL) was mixed with 135 μL of sterilized 1.5 M NaCl. This mixture was added to each 150 mL cell culture flask and incubated for 5 min in the incubator. […] Cells were diluted 1:1 with pre-warmed media supplemented with valproic acid 24 h post-transfection to a final concentration of 2.2 mM. Then, cells were harvested 6 days post-transfection by spinning down at 300 × g for 5 min, after which the supernatants were collected and centrifuged at 4000 × g for 15 min. Supernatant was dialyzed against buffer A and loaded into a His-Trap Column (GE Healthcare). Protein was eluted with an imidazol gradient in buffer A from 10 mM up to 400 mM. Buffer exchange to buffer C was carried out using a HiPrep 26/10 Desalting Column (GE Healthcare). The isolated DmC1GalT1-His and its mutants were then loaded in HiLoad 26/60 Superdex 75 Colum (GE Healthcare), previously equilibrated with buffer C.

As for R152A: DmC1GalT1 Ala mutant of Arg152, the “decrease in activity with respect to the WT” value (“decrease in activity” for short) turned out to be 15 fold. With W300A: DmC1GalT1 Ala mutant of Trp300, the “activity of the mutant” value was “inactive”. Consider Y213A: DmC1GalT1 Ala mutant of Tyr213, for which the “decrease in activity” value is reported as 25 fold. Turning to Y218A: DmC1GalT1 Ala mutant of Tyr218, the “activity of the mutant” value is “inactive”. Take Y325A: DmC1GalT1 Ala mutant of Tyr325: the “decrease in activity” value worked out at 25 fold.
